{"source": "patent US20230357253A1", "about": "“AGONISTS OF STIMULATOR OF INTERFERON GENES STING” (THE SCRIPPS RESEARCH INSTITUTE, priority 2020, published 2023)", "key": {"[1]": {"system": "THP-1 Lucia ISG cells", "assay": "ISRE-luciferase assay (ISG-LUC activation)", "type": "cell-based", "conditions": "Homo sapiens, THP1-Lucia ISG, 24 hours, luciferase reporter", "how_it_was_run": "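THP-1 Lucia ISG cells at 5×10^5 cells/ml in 2% FBS medium were treated with test article or DMSO vehicle for 24 h. Secreted luciferase was read by luminescence and normalized to vehicle, reported as RLU.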"}, "[2]": {"target": "human STING protein (Homo sapiens (Human), UniProt Q86WV6)", "sequence (Q86WV6 whole entry)": "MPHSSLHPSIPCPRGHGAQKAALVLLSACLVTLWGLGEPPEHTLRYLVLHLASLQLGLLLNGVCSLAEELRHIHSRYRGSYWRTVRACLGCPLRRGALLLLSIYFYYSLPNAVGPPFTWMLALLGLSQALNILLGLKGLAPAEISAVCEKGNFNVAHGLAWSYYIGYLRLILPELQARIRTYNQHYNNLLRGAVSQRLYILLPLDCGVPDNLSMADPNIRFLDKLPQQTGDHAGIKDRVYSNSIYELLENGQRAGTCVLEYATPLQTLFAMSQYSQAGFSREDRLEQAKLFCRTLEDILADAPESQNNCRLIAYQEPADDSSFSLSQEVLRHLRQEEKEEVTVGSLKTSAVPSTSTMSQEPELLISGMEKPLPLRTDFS", "assay": "WT STING binding assay (HTRF, competition with labeled 2′3′cGAMP)", "conditions": "recombinant 6×His-tagged human STING, three hours at room temperature", "how_it_was_run": "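Competitive HTRF binding: 10-point compound titration incubated 3 h at room temperature with 6×His-tagged human STING and labeled 2′3′cGAMP; FRET read at 665 nm. IC50 by curve fitting; percent inhibition relative to maximal binding of unlabeled 2′3′cGAMP control.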"}}, "data": [{"smiles": "O=C(Nc1cc(OCCc2cc(NC(=O)c3ccc(-n4ccnc4)nn3)c(C(=O)O)nc2Cl)c(F)cc1C(=O)O)c1ccc(-n2ccnc2)nn1", "note": "[Compound 181]", "values": [{"measurement": "EC50", "setting": "[1]", "result": "50 to 500", "unit": "nM"}, {"measurement": "IC50", "setting": "[2]", "result": "10 to 100", "unit": "nM"}]}, {"smiles": "C#Cc1cc(C(=O)O)c(NC(=O)c2ccc(-n3ccnc3)nn2)cc1CCOc1cc(NC(=O)c2ccc(-n3ccnc3)nn2)c(C(=O)O)cc1F", "note": "[Compound 183]", "values": [{"measurement": "EC50", "setting": "[1]", "result": "500 to 5000", "unit": "nM"}, {"measurement": "IC50", "setting": "[2]", "result": "100 to 1000", "unit": "nM"}]}, {"smiles": "O=C(Nc1cc(CSCc2cc(NC(=O)c3ccc4nnnn4n3)c(C(=O)O)cc2F)c(F)cc1C(=O)O)c1ccc(-n2ccnc2)nn1", "note": "[Compound 184]", "values": [{"measurement": "EC50", "setting": "[1]", "result": "500 to 5000", "unit": "nM"}, {"measurement": "IC50", "setting": "[2]", "result": "10 to 100", "unit": "nM"}]}, {"smiles": "CC(COc1cc(NC(=O)c2ccc(-n3ccnc3)nn2)c(C(=O)O)cc1F)COc1cc(NC(=O)c2ccc(-n3ccnc3)nn2)c(C(=O)O)cc1F", "note": "[Compound 185]", "values": [{"measurement": "EC50", "setting": "[1]", "result": "500 to 5000", "unit": "nM"}, {"measurement": "IC50", "setting": "[2]", "result": "10 to 100", "unit": "nM"}]}, {"smiles": "O=C(Nc1cc(CCc2cc(NC(=O)c3ccc(-n4ccnc4)nn3)c(C(=O)O)cc2F)c(F)cc1C(=O)O)c1ccc(-n2ccnc2)nn1", "note": "[Compound 187]", "values": [{"measurement": "EC50", "setting": "[1]", "result": "50 to 500", "unit": "nM"}, {"measurement": "IC50", "setting": "[2]", "result": "10 to 100", "unit": "nM"}]}, {"smiles": "O=C(Nc1cc(CCCc2cc(NC(=O)c3cc4nnnn4nn3)c(C(=O)O)cc2F)c(F)cc1C(=O)O)c1ccc(-c2cn[nH]c2)nn1", "note": "[Compound 192]", "values": [{"measurement": "EC50", "setting": "[1]", "result": "500 to 5000", "unit": "nM"}, {"measurement": "IC50", "setting": "[2]", "result": "10 to 100", "unit": "nM"}]}, {"smiles": "O=C(Nc1cc(CCOc2cc(NC(=O)c3ccc4nnnn4n3)c(C(=O)O)cc2F)c(Cl)cc1C(=O)O)c1ccc(-n2ccnc2)nn1", "note": "[Compound 196]", "values": [{"measurement": "EC50", "setting": "[1]", "result": "50 to 500", "unit": "nM"}, {"measurement": "IC50", "setting": "[2]", "result": "10 to 100", "unit": "nM"}]}, {"smiles": "O=C(Nc1cc(CCOc2cc(NC(=O)c3ccc(-n4ccnc4)nn3)c(C(=O)O)cc2Cl)c(F)cc1C(=O)O)c1ccc(-n2ccnc2)nn1", "note": "[Compound 197]", "values": [{"measurement": "EC50", "setting": "[1]", "result": "50 to 500", "unit": "nM"}, {"measurement": "IC50", "setting": "[2]", "result": "10 to 100", "unit": "nM"}]}, {"smiles": "O=C(Nc1cc(CCCCc2cc(NC(=O)c3ccc(-n4ccnc4)nn3)c(C(=O)O)cc2F)c(F)cc1C(=O)O)c1ccc(-n2ccnc2)nn1", "note": "[Compound 202]", "values": [{"measurement": "EC50", "setting": "[1]", "result": "50 to 500", "unit": "nM"}, {"measurement": "IC50", "setting": "[2]", "result": "10 to 100", "unit": "nM"}]}, {"smiles": "O=C(Nc1cc(OCCCOc2cc(NC(=O)c3ccc(-n4ccnc4)nn3)c(C(=O)O)cc2F)ccc1C(=O)O)c1ccc(-n2ccnc2)nn1", "note": "[Compound 203]", "values": [{"measurement": "EC50", "setting": "[1]", "result": "500 to 5000", "unit": "nM"}, {"measurement": "IC50", "setting": "[2]", "result": "10 to 100", "unit": "nM"}]}]}
